Tests used:
[1] = system: HT29 colon cancer cells; assay: Eight-day colony formation assay, HT29; format: cell-based, human
Method: (§1) We sought to identify compounds that would inhibit the growth of cancer cells, but that also did so selectively. Inhibition of cancer cell growth is a highly sought after attribute of anticancer agents. This was assessed by measuring the ability of a compound to inhibit cell growth in eight-day colony formation assays, examining concentrations ranging from 0.017 to 40 μM. Breast, colon, lung and prostate cancer are four of the most common causes of cancer in the United States, are major causes of cancer cell death, and were examined.[64] Two cell lines for each cancer type were assessed: A549 (adenocarcinoma) and H226 (squamous carcinoma) for lung, MCF-7 (estrogen receptor [ER] positive) and MDA-MB-231 (ER negative) for breast, LNCaP (androgen receptor [AR] positive) and PC3-M (AR negative) for prostate, and HCT116 (wild type p53, mutated KRAS) and HT29 (p53 mutant) for colon.[65]
(§2) In considering effect on cancer cells, for each compound and each cell line tested we calculated the efficacy ratio, i.e., efficacy ratio = (percent of remaining cancer cell colonies)/(percent of remaining bone marrow colonies), at 8 days after treatment with 40 μM compound (S4 Fig). We considered those with an efficacy ratio below 0.5 as active and at least partially selective. The stringency of this is highlighted by considering the effect of 5FU on colon cancer, where it is frequently used clinically in proven curative settings, as well as proven life prolonging settings.[70, 71] […] Even at 5.7 μM, where 5FU is toxic to bone marrow, with hematopoietic colony formation at 38% of control, the efficacy ratio for HT29 cells has only dropped to 0.52. […] It can be seen that compounds segregate to protein sites. Specifically, of 10 compounds meeting this activity criteria (i.e., efficacy ratio <0.5), 3 were directed at the Dxr2 site, 3 at FolC2, 2 at FolC1, 1 at Dxr1 and 1 at TYLT.
(§3) Eight-day colony formation assays of cancer cells were performed as described by us.[87] Briefly, 0.5–1.0 × 10^3 cells were seeded into a 12 well plate, after 24 hours compound added and eight days later colonies (of 3 or more cells) were scored after trypan blue staining. Conditions were in replicates of N = 2. All compounds were stored under desiccated conditions in a sealed container at minus 20°C upon arrival. One day prior to use, they were placed into DMSO, stored at […] as stock solutions, thawed just prior to use, and not reused.

[2] = system: MCF-7 breast cancer cells; assay: Eight-day colony formation assay, MCF-7; format: cell-based, human
Method: as §1, §2, §3

[3] = system: H226 lung cancer cells; assay: Eight-day colony formation assay, H226; format: cell-based, human
Method: as §1, §2, §3

[4] = system: A549 lung cancer cells; assay: Eight-day colony formation assay, A549; format: cell-based, human
Method: as §1, §2, §3

[5] = system: PC3-M prostate cancer cells; assay: Eight-day colony formation assay, PC3-M; format: cell-based, human
Method: as §1, §2, §3

[6] = system: human melanoma M14 cells; assay: Eight-day colony formation assay, M14; format: cell-based; settings: for IC50: M14, eight-day assay, mean ± SEM
Method: We next evaluated the effect of Dxr2-017 on human melanoma M14 and SK-MEL-5 cell lines in eight-day assays (Fig 8A).
(§4) Fig 8. Dxr2-017 inhibits melanoma cell growth through induction of anoikis. (A) Inhibition of melanoma cell growth. Cells were treated with different concentrations of Dxr2-017 and formation of colonies at eight days depicted. Data are expressed as percent of untreated control and are the mean ± SEM (N=3 replicates) of a single experiment. (B) No effect on cycle progression. M14 and SK-MEL-5 cells were treated for 8 days with 20 and 50 nM Dxr2-017, respectively, and phase of cell cycle determined by flow cytometry. Data are the mean ± SEM (N=3). *denotes P-value ≤0.05. (C) Transition to floating cells. Cells were treated for three days with different Dxr2-017 concentrations. Depicted are representative light photomicrographs at 20X; scale bar is150 μm. Blue and green arrows denote adherent and floating cells, respectively. (D) Cleaved caspase 3 is induced in floating cells. Cells were treated for 3 days, cell lysate from only adherent cells, or from adherent and floating cells combined, was probed by Western blot for cleaved caspase 3. All experiments were repeated at separate times, yielding similar results.
as §3

[7] = system: human breast, prostate, colon and lung cancer cells; assay: Eight-day colony formation assays, summary across the cancer cell line panel; format: cell-based
Method: as §1, §2, §3

[8] = system: M14 cells; assay: Western blot for cleaved caspase 3, M14; format: cell-based, human; settings: 3 days, up to 10 μM
Method: as §4
(§5) We then assessed whether Dxr2-017 was inducing apoptosis. […] These findings raised the possibility that Dxr2-017 was inducing anoikis, a process in which programmed cell death occurs upon cell detachment.[72, 73] […]

[9] = system: SK-MEL-5 cells; assay: Western blot for cleaved caspase 3, SK-MEL-5; format: cell-based, human; settings: 3 days, up to 20 μM
Method: as §4, §5

c1ccc2sc(-c3ccc(CNc4ccc5nnnn5n4)o3)nc2c1 [Dxr2-017]
efficacy ratio (cancer cell colonies to bone marrow colonies at 8 days) ([1]; 5.7 μM): 0.03 | efficacy ratio (cancer cell colonies to bone marrow colonies at 8 days) ([1]; 40 μM): 0.00 | inhibition at 0.12 µM ([1]; Homo sapiens, HT-29, 0.12 μM, mean ± SD, read-out: inhibition of colony formation compared to control): 91.1 ± 4.8% | efficacy ratio (cancer cell colonies to bone marrow colonies at 8 days) ([2]; 5.7 μM): 0.39 | efficacy ratio (cancer cell colonies to bone marrow colonies at 8 days) ([2]; 40 μM): 0.02 | efficacy ratio (cancer cell colonies to bone marrow colonies at 8 days) ([3]; 5.7 μM): 0.12 | efficacy ratio (cancer cell colonies to bone marrow colonies at 8 days) ([3]; 40 μM): 0.02 | efficacy ratio (cancer cell colonies to bone marrow colonies at 8 days) ([4]; 5.7 μM): 1.26 | efficacy ratio (cancer cell colonies to bone marrow colonies at 8 days) ([4]; 40 μM): 0.07 | efficacy ratio (cancer cell colonies to bone marrow colonies at 8 days) ([5]; 5.7 μM): 0.41 | efficacy ratio (cancer cell colonies to bone marrow colonies at 8 days) ([5]; 40 μM): 0.00 | IC50 ([6]; Homo sapiens, M14, 192 h): 19 nM | IC50 [6]: 19.7 ± 7.4 nM | fold efficacy versus bone marrow stem cells ([6]; M14 IC50 compared to 40 μM eight-day bone marrow treatment): over 2100 fold | relative activity for a given compound, % (% of cells tested where ratio is <0.5) ([7]; 5.7 μM): 75% | mean efficacy ratio for cells where the efficacy ratio is below 0.5 ([7]; 5.7 μM, mean ± SEM): 0.25 ± 0.091 | relative activity for a given compound, % (% of cells tested where ratio is <0.5) ([7]; 40 μM): 100% | mean efficacy ratio for cells/compounds where the efficacy ratio is below 0.5 ([7]; 40 μM, mean ± SEM): 0.03 ± 0.01 | cleaved caspase 3, adherent cells only [8]: did not detect any induction of cleaved caspase 3 | cleaved caspase 3, floating and adherent cells combined [8]: clear formation | cleaved caspase 3, adherent cells only [9]: did not detect any induction of cleaved caspase 3 | cleaved caspase 3, floating and adherent cells combined [9]: clear formation

From doi:10.1101/2024.05.17.594634, “Protein Structure Inspired Drug Discovery” (bioRxiv, 2024)
